Source: ChEMBL document CHEMBL5338760, “Ψ and χ Angle Constrains at the C-Terminus Trp Position of the Melanotropin Tetrapeptide Ac-His-d-Phe-Arg-Trp-NH2 Lead to Potent and Selective Agonists at hMC1R and hMC4R” (J Med Chem, 2023)

Legend:
Melanocortin receptor 3 [1] = target: T1, Melanocortin receptor 3 (Homo sapiens, UniProt P41968); test: Agonist activity at human MC3R stably overexpressing in HEK293 cells assessed as intracellular acumulation of cAMP level incubated for 30 mins measured by microbeta 2 microplate counter analysis; format: functional, cell-based
[2] = target: T2, Melanocyte-stimulating hormone receptor (Homo sapiens, UniProt Q01726); test: Displacement of [I125] NDP-alpha-MSH from human MC1R stably overexpressing in HEK293 cells in presence of [I125] labeled NDP-alpha-MSH treated for 40 mins measured by microbeta 2 microplate counter analysis; format: cell-based
Target sequence in this assay (Q01726 whole entry): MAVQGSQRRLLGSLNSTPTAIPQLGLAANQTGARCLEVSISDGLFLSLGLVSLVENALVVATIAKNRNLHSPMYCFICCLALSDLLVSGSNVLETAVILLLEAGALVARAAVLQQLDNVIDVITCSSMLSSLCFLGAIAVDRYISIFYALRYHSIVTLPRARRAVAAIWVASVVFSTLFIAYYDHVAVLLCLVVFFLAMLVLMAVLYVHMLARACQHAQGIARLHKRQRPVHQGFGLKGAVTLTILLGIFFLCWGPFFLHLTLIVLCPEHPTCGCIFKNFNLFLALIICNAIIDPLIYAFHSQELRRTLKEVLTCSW

Melanocortin receptor 3 [3] = target: T1, Melanocortin receptor 3; test: Displacement of [I125] NDP-alpha-MSH from human MC3R stably overexpressing in HEK293 cells in presence of [I125] labeled NDP-alpha-MSH treated at 10 uM for 40 mins measured by microbeta 2 microplate counter analysis relative to control; format: cell-based; conditions: filed as agonist
Melanocortin receptor 5 [4] = target: T3, Melanocortin receptor 5 (Homo sapiens, UniProt P33032); test: Displacement of [I125] NDP-alpha-MSH from human MC5R stably overexpressing in HEK293 cells in presence of [I125] labeled NDP-alpha-MSH treated for 40 mins measured by microbeta 2 microplate counter analysis; format: cell-based
[5] = target: T2, Melanocyte-stimulating hormone receptor; test: Displacement of [I125] NDP-alpha-MSH from human MC1R stably overexpressing in HEK293 cells in presence of [I125] labeled NDP-alpha-MSH treated at 10 uM for 40 mins measured by microbeta 2 microplate counter analysis relative to control; format: cell-based
Target sequence in this assay (Q01726 whole entry, looked up): as the sequence (Q01726 whole entry) above

Melanocortin receptor 5 [6] = target: T3, Melanocortin receptor 5; test: Displacement of [I125] NDP-alpha-MSH from human MC5R stably overexpressing in HEK293 cells in presence of [I125] labeled NDP-alpha-MSH treated at 10 uM for 40 mins measured by microbeta 2 microplate counter analysis relative to control; format: cell-based
Melanocortin receptor 3 [7] = target: T1, Melanocortin receptor 3; test: Agonist activity at human MC3R stably overexpressing in HEK293 cells assessed as intracellular acumulation of cAMP level incubated at 10 uM for 30 mins measured by microbeta 2 microplate counter analysis relative to MT-II; format: functional, cell-based; conditions: filed as agonist
Melanocortin receptor 5 [8] = target: T3, Melanocortin receptor 5; test: Agonist activity at human MC5R stably overexpressing in HEK293 cells assessed as intracellular acumulation of cAMP level incubated for 30 mins measured by microbeta 2 microplate counter analysis; format: functional, cell-based
[9] = target: T2, Melanocyte-stimulating hormone receptor; test: Agonist activity at human MC1R stably overexpressing in HEK293 cells assessed as intracellular acumulation of cAMP level incubated at 10 uM for 30 mins measured by microbeta 2 microplate counter analysis relative to MT-II; format: functional, cell-based; conditions: filed as agonist
Target sequence in this assay (Q01726 whole entry, looked up): as the sequence (Q01726 whole entry) above

Melanocortin receptor 4 [10] = target: T4, Melanocortin receptor 4 (Homo sapiens, UniProt P32245); test: Displacement of [I125] NDP-alpha-MSH from human MC4R stably overexpressing in HEK293 cells in presence of [I125] labeled NDP-alpha-MSH treated for 40 mins measured by microbeta 2 microplate counter analysis; format: cell-based
Melanocortin receptor 5 [11] = target: T3, Melanocortin receptor 5; test: Agonist activity at human MC5R stably overexpressing in HEK293 cells assessed as intracellular acumulation of cAMP level incubated at 10 uM for 30 mins measured by microbeta 2 microplate counter analysis relative to MT-II; format: functional, cell-based; conditions: filed as agonist
[12] = target: T2, Melanocyte-stimulating hormone receptor; test: Agonist activity at human MC1R stably overexpressing in HEK293 cells assessed as intracellular acumulation of cAMP level incubated for 30 mins measured by microbeta 2 microplate counter analysis; format: functional, cell-based
Target sequence in this assay (Q01726 whole entry): as above

Melanocortin receptor 4 [13] = target: T4, Melanocortin receptor 4; test: Agonist activity at human MC4R stably overexpressing in HEK293 cells assessed as intracellular acumulation of cAMP level incubated for 30 mins measured by microbeta 2 microplate counter analysis; format: functional, cell-based
Melanocortin receptor 3 [14] = target: T1, Melanocortin receptor 3; test: Displacement of [I125] NDP-alpha-MSH from human MC3R stably overexpressing in HEK293 cells in presence of [I125] labeled NDP-alpha-MSH treated for 40 mins measured by microbeta 2 microplate counter analysis; format: cell-based
[15] = target: T2, Melanocyte-stimulating hormone receptor; test: Displacement of [I125] NDP-alpha-MSH from human MC1R stably overexpressing in HEK293 cells in presence of [I125] labeled NDP-alpha-MSH treated at 10 uM for 40 mins measured by microbeta 2 microplate counter analysis; format: cell-based
Target sequence in this assay (Q01726 whole entry): as above

Melanocortin receptor 4 [16] = target: T4, Melanocortin receptor 4; test: Displacement of [I125] NDP-alpha-MSH from human MC4R stably overexpressing in HEK293 cells in presence of [I125] labeled NDP-alpha-MSH treated at 10 uM for 40 mins measured by microbeta 2 microplate counter analysis; format: cell-based
Melanocortin receptor 5 [17] = target: T3, Melanocortin receptor 5; test: Displacement of [I125] NDP-alpha-MSH from human MC5R stably overexpressing in HEK293 cells in presence of [I125] labeled NDP-alpha-MSH treated at 10 uM for 40 mins measured by microbeta 2 microplate counter analysis; format: cell-based
Melanocortin receptor 3 [18] = target: T1, Melanocortin receptor 3; test: Displacement of [I125] NDP-alpha-MSH from human MC3R stably overexpressing in HEK293 cells in presence of [I125] labeled NDP-alpha-MSH treated at 10 uM for 40 mins measured by microbeta 2 microplate counter analysis; format: cell-based

T4 sequence (P32245 whole entry): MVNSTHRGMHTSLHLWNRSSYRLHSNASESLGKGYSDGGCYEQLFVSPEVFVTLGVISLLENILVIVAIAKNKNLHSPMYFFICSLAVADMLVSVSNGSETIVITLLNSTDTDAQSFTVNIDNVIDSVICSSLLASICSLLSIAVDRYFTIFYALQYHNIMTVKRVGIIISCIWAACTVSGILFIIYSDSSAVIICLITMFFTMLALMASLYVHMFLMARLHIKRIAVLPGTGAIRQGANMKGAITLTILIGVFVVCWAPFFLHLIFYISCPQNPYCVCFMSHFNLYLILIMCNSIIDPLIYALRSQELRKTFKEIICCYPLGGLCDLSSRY
T1 sequence (P41968 whole entry): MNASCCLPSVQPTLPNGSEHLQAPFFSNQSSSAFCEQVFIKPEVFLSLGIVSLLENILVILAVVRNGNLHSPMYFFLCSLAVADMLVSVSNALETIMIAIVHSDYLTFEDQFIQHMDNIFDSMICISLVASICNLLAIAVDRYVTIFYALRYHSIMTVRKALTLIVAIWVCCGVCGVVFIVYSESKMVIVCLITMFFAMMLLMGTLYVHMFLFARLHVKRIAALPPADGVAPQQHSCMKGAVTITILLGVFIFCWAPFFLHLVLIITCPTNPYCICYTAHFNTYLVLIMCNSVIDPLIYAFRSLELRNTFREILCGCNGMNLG
T3 sequence (P33032 whole entry): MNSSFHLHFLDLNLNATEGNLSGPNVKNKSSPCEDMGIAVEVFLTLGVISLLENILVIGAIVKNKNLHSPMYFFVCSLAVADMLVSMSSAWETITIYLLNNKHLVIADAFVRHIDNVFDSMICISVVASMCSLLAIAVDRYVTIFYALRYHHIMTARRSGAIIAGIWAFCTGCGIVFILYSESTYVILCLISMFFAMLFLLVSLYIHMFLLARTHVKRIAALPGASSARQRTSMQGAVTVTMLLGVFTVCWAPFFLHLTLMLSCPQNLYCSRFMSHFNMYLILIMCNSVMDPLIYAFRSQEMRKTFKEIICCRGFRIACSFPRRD

EC50 (Melanocortin receptor 3 [1]; read-out: EC50) [nM]	IC50 [2] [nM]	IC50 (Melanocortin receptor 5 [4]) [nM]	Emax [9] [%]	EC50 ([12]; read-out: EC50) [nM]	EC50 (Melanocortin receptor 4 [13]; read-out: EC50) [nM]	IC50 (Melanocortin receptor 3 [14]) [nM]	EC50 (Melanocortin receptor 3 [1]; hek293)	IC50 [15]	EC50 (Melanocortin receptor 5 [8]; hek293)	IC50 (Melanocortin receptor 4 [16])	IC50 (Melanocortin receptor 5 [17])	IC50 (Melanocortin receptor 3 [18])	EC50 ([12]; hek293)	EC50 (Melanocortin receptor 4 [13]; hek293)	Compound	other results
166	34	> 1000	100	11.2	171	165	–	–	–	–	–	–	–	–	CC(=O)N[C@@H](Cc1c[nH]cn1)C(=O)N[C@H](Cc1ccccc1)C(=O)N[C@@H](CCCNC(=N)N)C(=O)N[C@H]1Cc2c([nH]c3ccccc23)CNC1=O	Activity (Melanocortin receptor 3 [3]): 61%; Activity ([5]; filed as agonist): 83%; Activity (Melanocortin receptor 5 [6]): 39%; Emax (Melanocortin receptor 3 [7]): 66%; EC50 (Melanocortin receptor 5 [8]; read-out: EC50): 165 nM; IC50 (Melanocortin receptor 4 [10]): 166 nM; Emax (Melanocortin receptor 5 [11]): 61%
–	–	–	–	–	–	–	Not Active	Not Active	Not Active	Not Active	Not Active	Not Active	Not Active	Not Active	CCCC[C@H](NC(=O)[C@@H](Cc1ccccc1)NC(=O)[C@H](Cc1c[nH]cn1)NC(C)=O)C(=O)N[C@H]1Cc2ccccc2CNC1=O	–
> 1000	9.6	> 1000	96	136	–	–	–	–	Not Active	Not Active	–	Not Active	–	Not Active	CC(=O)N[C@@H](Cc1c[nH]cn1)C(=O)N[C@H](Cc1ccccc1)C(=O)N[C@@H](CCCNC(=N)N)C(=O)N[C@H]1Cn2nncc2CNC1=O	Activity [5]: 21%
–	–	–	–	–	–	–	Not Active	Not Active	Not Active	Not Active	Not Active	Not Active	Not Active	Not Active	CCCC[C@H](NC(=O)[C@@H](Cc1ccccc1)NC(=O)[C@H](Cc1c[nH]cn1)NC(C)=O)C(=O)N[C@H]1Cn2nncc2CNC1=O	–
–	81	40	100	37	4.1	> 1000	Not Active	–	Not Active	–	–	–	–	–	CC(=O)N[C@@H](Cc1c[nH]cn1)C(=O)N[C@H](Cc1ccc(C(F)(F)F)cc1)C(=O)N[C@@H](CCCNC(=N)N)C(=O)N[C@H]1Cc2c([nH]c3ccccc23)CNC1=O	Activity [5]: 35%; IC50 (Melanocortin receptor 4 [10]): 2.5 nM
–	–	–	–	–	–	–	Not Active	Not Active	Not Active	Not Active	Not Active	Not Active	Not Active	Not Active	CC(=O)N[C@@H](Cc1c[nH]cn1)C(=O)N[C@H](Cc1ccccc1)C(=O)N[C@@H](CCCNC(=N)N)C(=O)N[C@H]1Cc2ccccc2CNC1=O	–
> 1000	–	–	–	> 1000	> 1000	–	–	Not Active	Not Active	Not Active	Not Active	Not Active	–	–	CCCC[C@H](NC(=O)[C@@H](Cc1ccccc1)NC(=O)[C@H](Cc1c[nH]cn1)NC(C)=O)C(=O)N[C@H]1Cc2c([nH]c3ccccc23)CNC1=O	–
–	1	4	–	1	2	2	–	–	–	–	–	–	–	–	CCCC[C@H](NC(C)=N)C(=O)N[C@@H]1NCCCC[C@@H](C(N)=O)NC(=O)[C@H](Cc2c[nH]c3ccccc23)NC(=O)[C@H](CCCNC(=N)N)NC(=O)[C@H](Cc2ccccc2)NC(=O)[C@H](Cc2cnc[nH]2)NC1=O	Activity (Melanocortin receptor 3 [3]): 100%; Activity ([5]; filed as agonist): 100%; Activity (Melanocortin receptor 5 [6]; filed as agonist): 100%; EC50 (Melanocortin receptor 5 [8]; read-out: EC50): 6 nM
–	–	–	100	–	–	–	–	–	–	–	–	–	–	–	CC(=O)N[C@@H](Cc1cnc[nH]1)C(=O)N[C@H](Cc1ccccc1)C(=O)N[C@@H](CCCNC(=N)N)C(=O)N[C@@H](Cc1c[nH]c2ccccc12)C(N)=O	Activity (Melanocortin receptor 5 [6]; filed as agonist): 100%; Emax (Melanocortin receptor 3 [7]): 100%; Emax (Melanocortin receptor 5 [11]): 63%
